Laboratory results: the supplement of paper PMC7224384

Experiments:
MDA-MB-453 [1] = experiment: drug sensitivity score (DSS), single agent (DSS (weighted AUC score)); higher = more sensitive (stronger viability decrease); extreme values may be limits of the assay; conditions: BLU9931 0 nM; 72 h
In short: (§1)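 Cells of the MDA-MB-453 line (2000 per well) were added in medium, with or without 100 nM final FGFR4 inhibitor, to 384-well plates predispensed with FIMM Oncology set compounds at five 10-fold dilutions covering a 10,000-fold range. After 72 h at 37 °C, 5% CO2, CellTiterGlo 2.0 read cellular ATP. Percent viability came from per-plate normalisation to control wells, and the drug sensitivity score was defined as a weighted area under a four-parameter logistic fit.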

MDA-MB-453 [2] = experiment: drug sensitivity score (DSS), in combination with BLU9931 (DSS (weighted AUC score)); higher = more sensitive (stronger viability decrease); extreme values may be limits of the assay; conditions: BLU9931 100 nM; 72 h
In short: as §1

Structure (SMILES)	drug sensitivity score (MDA-MB-453 [1])	drug sensitivity score (MDA-MB-453 [2])
CS(=O)(=O)N1CCN(Cc2cc3nc(-c4cccc5[nH]ncc45)nc(N4CCOCC4)c3s2)CC1 [Pictilisib]	16.6	17.4
C=CC(=O)N1CCC(Oc2cc3c(Nc4ccc(Cl)c(Cl)c4F)ncnc3cc2OC)CC1 [Poziotinib]	19.1	25.1
Cc1ccc(-n2nc(C(C)(C)C)cc2NC(=O)Nc2ccc(OCCN3CCOCC3)c3ccccc23)cc1 [Doramapimod]	2.3	1.8
O=C(CCNC(=O)c1ccc(OC(F)(F)F)cc1)N[C@@H]1CCCc2ccccc21 [ML390]	5.2	3
Nc1nc2[nH]cc(CCc3ccc(C(=O)N[C@@H](CCC(=O)O)C(=O)O)cc3)c2c(=O)[nH]1 [Pemetrexed]	5.4	1.8
Cc1cc([C@@H](C)Nc2ccccc2C(=O)O)c2nc(N3CCOCC3)cc(=O)n2c1 [AZD-6482]	7.5	7.4
CNC(=O)CN1CCC(Oc2cc3c(Nc4cccc(Cl)c4F)ncnc3cc2OC)CC1 [Sapitinib]	2.2	4.8
O=C(O)c1ccc(-c2c[nH]c3ncc(-c4ccccc4)cc23)cc1C1CCCC1	1.4	0.5
Cc1nn(C)c(COc2ccc(N3CCN(S(=O)(=O)N(C)C)CC3)cc2)c1-c1cccc2c(CCCOc3cccc4ccccc34)c(C(=O)O)n(CCN3CCOCC3)c12	5.8	5.8
COC(=O)c1ccc2c(c1)[nH]c1ncnc(NCCCN3CCCCC3)c12 [UM729]	2	1.3
Nc1nc(Nc2ccc3c(c2)CC[C@@H](N2CCCC2)CC3)nn1-c1cc2c(nn1)-c1ccccc1CCC2 [BGB324]	3.2	0.2
C=CCn1c(=O)c2cnc(Nc3ccc(N4CCN(C)CC4)cc3)nc2n1-c1cccc(C(C)(C)O)n1 [AZD1775]	13.7	12.4
Cc1sc2c(c1C)C(c1ccc(Cl)cc1)=N[C@@H](CC(=O)Nc1ccc(O)cc1)c1nnc(C)n1-2 [Birabresib]	15.2	15.2
Cc1[nH]c2ccccc2c1CCNCc1ccc(/C=C/C(=O)NO)cc1 [Panobinostat]	22.2	22.4
COC(=O)c1ccc([C@H]2c3[nH]c4ccccc4c3C[C@H](C(=O)OC)N2C(=O)CCl)cc1 [RSL3]	0.6	0.8
CC1(C)CCC(CN2CCN(c3ccc(C(=O)NS(=O)(=O)c4ccc(NCC5CCOCC5)c([N+](=O)[O-])c4)c(Oc4cnc5[nH]ccc5c4)c3)CC2)=C(c2ccc(Cl)cc2)C1 [Venetoclax]	0	0
CN1CC[C@H](c2c(O)cc(O)c3c(=O)cc(-c4ccccc4Cl)oc23)[C@H](O)C1 [Alvocidib]	14.5	16.2
N#Cc1ccc2[nH]c(O)c(-c3ccc(CN4CCOCC4)cn3)c2c1 [AZD-1080]	0	0
Cc1cc(-c2nc(-c3ccc(OC(F)(F)F)cc3)no2)nn1Cc1ccnc(N2CCN(C3CC3)CC2)c1 [BAY 87-2243]	12.2	10.4

Structure (SMILES)	drug sensitivity score (MDA-MB-453 [1])	drug sensitivity score (MDA-MB-453 [2])
COC(=O)c1ccc2c(c1)NC(=O)/C2=C(\Nc1ccc(N(C)C(=O)CN2CCN(C)CC2)cc1)c1ccccc1 [Nintedanib]	4.7	1.9
CC(O)(CS(=O)(=O)c1ccc(F)cc1)C(=O)Nc1ccc(C#N)c(C(F)(F)F)c1 (configuration not stated) [Bicalutamide]	2.3	2.3
CC(=O)Nc1cccc(-n2c(=O)n(C3CC3)c(=O)c3c(Nc4ccc(I)cc4F)n(C)c(=O)c(C)c32)c1 [Trametinib]	5.7	2.7
CC(C)N(C[C@H]1O[C@@H](n2cnc3c(N)ncnc32)[C@H](O)[C@@H]1O)[C@H]1C[C@@H](CCc2nc3cc(C(C)(C)C)ccc3[nH]2)C1 [Pinometostat]	0	0
COc1cc(Nc2ncc(F)c(Nc3ccc4c(n3)N(COP(=O)(O)O)C(=O)C(C)(C)O4)n2)cc(OC)c1OC [Fostamatinib]	0.1	0
CC(C)Oc1ccc(-c2nn([C@@H](C)c3oc4ccc(F)cc4c(=O)c3-c3cccc(F)c3)c3ncnc(N)c23)cc1F [TGR-1202]	0.7	0
COc1cc2c(NC3CCN(C(C)C)CC3)nc(C3CCCCC3)nc2cc1OCCCN1CCCC1 [UNC0638]	0	4.9
CN1CCN(CCOc2cc(OC3CCOCC3)c3c(Nc4c(Cl)ccc5c4OCO5)ncnc3c2)CC1 [Saracatinib]	1.5	3.6
CC(=O)c1c(C)c2cnc(Nc3ccc(N4CCNCC4)cn3)nc2n(C2CCCC2)c1=O [Palbociclib]	2.5	4.8
CCn1cc(-c2ccnc3[nH]c(-c4cccc(CN(C)C)c4)cc23)c(-c2ccc(NC(=O)N(C)C)cc2)n1	1	1
CCNC(=O)CCC/C=C\C[C@@H]1[C@@H](/C=C/[C@@H](O)CCc2ccccc2)[C@H](O)C[C@@H]1O [Bimatoprost]	0	0
O=C(/C=C/c1cccnc1)NCCCCC1CCN(C(=O)c2ccccc2)CC1 [Daporinad]	30.5	28.6
Cc1noc2c1-c1ccccc1C(c1ccc(Cl)cc1)=N[C@H]2CC(N)=O [CPI-0610]	9.4	10
CC(C)C[C@H](NC(=O)[C@H](Cc1ccccc1)NC(=O)c1cnccn1)B(O)O [Bortezomib]	21.3	20.1
Cc1cc(Nc2cc(CN3CCOCC3)c3nc(C)c(Cc4ccc(Cl)cc4F)n3n2)n[nH]1 [Gandotinib]	5	1.2
C[C@H](Nc1ncnc2nc[nH]c12)c1cc2cccc(Cl)c2c(=O)n1-c1ccccc1 [Duvelisib]	0	0
CC[C@@H]1CN(C(=O)NCC(F)(F)F)C[C@@H]1c1cnc2cnc3[nH]ccc3n12 [Upadacitinib]	0.9	0
CNC(=O)c1cc(COc2nnc(Nc3ccc(Cl)cc3)c3ccoc23)ccn1 [Telatinib]	1.2	0
CC(C)C(=O)Nc1ccc([N+](=O)[O-])c(C(F)(F)F)c1 [Flutamide]	0	0

Structure (SMILES)	drug sensitivity score (MDA-MB-453 [1])	drug sensitivity score (MDA-MB-453 [2])
CCN(c1cc(-c2ccc(CN3CCOCC3)cc2)cc(C(=O)NCc2c(C)cc(C)[nH]c2=O)c1C)C1CCOCC1 [Tazemetostat]	2.1	0
COc1cc2ncnc(Nc3ccc(F)c(Cl)c3)c2cc1NC(=O)/C=C/CN1CCCCC1 [Dacomitinib]	7.3	8.6
CN1CCN(C2CCC(n3cc(-c4ccc(Oc5ccccc5)cc4)c4c(N)ncnc43)CC2)CC1 (configuration not stated)	8.4	9.3
CCNc1nc(Nc2cc(F)c(C(=O)N3CCOCC3)cc2OC)ncc1C(F)(F)F [GNE-7915]	0	0
CCNC(=O)c1noc(-c2cc(C(C)C)c(O)cc2O)c1-c1ccc(CN2CCOCC2)cc1 [Luminespib]	18.1	19.7
COc1ccc(-c2nc(N3CCOCC3)c3sc(CN(C)c4ncc(C(=O)NO)cn4)cc3n2)cn1 [CUDC-907]	38.8	40
S=C(NCc1ccc2c(c1)OCO2)N1CCN(c2ncnc3c2oc2ccccc23)CC1 [Amuvatinib]	3.3	0.3
Cc1cnc(-c2ccccc2C(C)C)nc1NCc1ccc(-n2ccnn2)cc1 [ML323]	0.4	0
Cc1nc(NC(=O)N2CCC[C@H]2C(N)=O)sc1-c1ccnc(C(C)(C)C(F)(F)F)c1 [Alpelisib]	7.2	8
O=C(c1ccc(C(=O)N2CCC(N3CCCC3)CC2)c(Nc2ccccc2)c1)N1CCC(N2CCCC2)CC1 [UNC1215]	0	0
Cc1nc(C(=O)NCC(=O)O)c(O)c2ccc(Oc3ccccc3)cc12 [Roxadustat]	0	0
NC(=O)c1cccc2cn(-c3ccc([C@@H]4CCCNC4)cc3)nc12 [Niraparib]	2.3	1.3
CC(C)(C)c1nc(-c2cccc(NS(=O)(=O)c3c(F)cccc3F)c2F)c(-c2ccnc(N)n2)s1 [Dabrafenib]	1.5	0.4
C[C@]12C=CC(=O)C=C1CC[C@@H]1[C@@H]2[C@@H](O)C[C@@]2(C)[C@H]1CC[C@]2(O)C(=O)CO [Prednisolone]	8.2	0
CC[C@@]1(O)C(=O)OCc2c1cc1n(c2=O)Cc2cc3c(CN(C)C)c(O)ccc3nc2-1 [Topotecan]	14.7	12.5
NC(=O)/C(=C/n1cnc(-c2cc(C(F)(F)F)cc(C(F)(F)F)c2)n1)c1cncnc1 [Eltanexor]	13.8	14.2
CN(C)C(=O)c1cc2cnc(Nc3ccc(N4CCNCC4)cn3)nc2n1C1CCCC1 [Ribociclib]	1.4	3.6
Cc1ccc(F)c(NC(=O)Nc2ccc(-c3cccc4[nH]nc(N)c34)cc2)c1 [Linifanib]	0	0
